The values below come from PubChem BioAssay AID330 (DTP/NCI, 2004).

Where “and” joins values, the source holds several entries; their conditions need not be identical. Equal values may be shown once. Toxic doses and inconclusive results are not listed.

The test has as its system P388 leukemia ip, CD2F1 mice, survival T/C. Put plainly: NCI In Vivo Anticancer Drug Screen. Data for tumor model P388 Leukemia (intraperitoneal) in CD2F1 (CDF1) mice. Conditions: endpoint: median survival time, higher = longer survival. The method, boiled down: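 Mice carrying the transplanted tumor received test compound or vehicle. Survival was recorded in each group, and the value is the treated-group measurement divided by that of the vehicle-treated control group.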

Setting [1] is: dose: 100.0 mg/kg/injection, schedule: Q01DX001 (ip), vehicle: Klucel (hydroxypropylcellulose) (HPC).
[2] abbreviates: dose: 200.0 mg/kg/injection, schedule: Q01DX001 (ip), vehicle: Klucel (hydroxypropylcellulose) (HPC).
Where [3] appears, read: dose: 400.0 mg/kg/injection, schedule: Q01DX001 (ip), vehicle: Klucel (hydroxypropylcellulose) (HPC).
Where [4] appears, read: dose: 100.0 mg/kg/injection, schedule: Q04DX003 (ip), vehicle: Klucel (hydroxypropylcellulose) (HPC).
Where [5] appears, read: dose: 50.0 mg/kg/injection, schedule: Q01DX005 (ip), vehicle: saline.
Where [6] appears, read: dose: 100.0 mg/kg/injection, schedule: Q01DX005 (ip), vehicle: saline.
Where [7] appears, read: dose: 60.0 mg/kg/injection, schedule: Q01DX005 (ip), vehicle: Klucel (hydroxypropylcellulose) (HPC).
Setting [8] is: dose: 120.0 mg/kg/injection, schedule: Q01DX005 (ip), vehicle: Klucel (hydroxypropylcellulose) (HPC).
The mark [9] stands for this setting: dose: 240.0 mg/kg/injection, schedule: Q01DX005 (ip), vehicle: Klucel (hydroxypropylcellulose) (HPC).

Turning to `COc1cc2cc(c1Cl)N(C)C(=O)CC(OC(=O)C(C)N(C)C(=O)C(C)C)C1(C)OC1C(C)C1CC(O)(NC(=O)O1)C(OC)/C=C/C=C(C)C2` (stereo unspecified), the T/C (dose: 0.1 micrograms/kg/injection, schedule: Q01DX009 (ip), vehicle: saline) is 105 % of control; the T/C (dose: 0.2 micrograms/kg/injection, schedule: Q01DX009 (ip), vehicle: saline) was 115 % of control; the T/C (dose: 3.1 micrograms/kg/injection, schedule: Q01DX009 (ip), vehicle: saline + alcohol) was 157 % of control; the T/C (dose: 3.1 micrograms/kg/injection, schedule: Q01DX009 (ip), vehicle: saline) is 150 % of control; the T/C (dose: 6.3 micrograms/kg/injection, schedule: Q01DX009 (ip), vehicle: saline + alcohol) is 167 % of control; the T/C (dose: 6.3 micrograms/kg/injection, schedule: Q01DX009 (ip), vehicle: saline) is 161 % of control. Further, the T/C (dose: 12.5 micrograms/kg/injection, schedule: Q01DX009 (ip), vehicle: saline + alcohol) is 150 % of control.
In the case of `CN(C)C(=O)ONC(=O)c1ccccc1`, the T/C runs as follows: (dose: 50.0 mg/kg/injection, schedule: Q01DX009 (ip), vehicle: Klucel (hydroxypropylcellulose) (HPC)) 105 % of control; (dose: 100.0 mg/kg/injection, schedule: Q01DX009 (ip), vehicle: Klucel (hydroxypropylcellulose) (HPC)) 109 % of control; (dose: 200.0 mg/kg/injection, schedule: Q01DX009 (ip), vehicle: Klucel (hydroxypropylcellulose) (HPC)) 108 % of control.
Regarding `COC1/C=C/OC2(C)Oc3c(C)c(O)c4c(O)c(c(CNCc5ccccc5)c(O)c4c3C2=O)NC(=O)/C(C)=C\C=C\C(C)C(O)C(C)C(O)C(C)C(OC(C)=O)C1C` (stereo unspecified), the T/C runs as follows: (dose: 25.0 mg/kg/injection, schedule: Q01DX009 (ip), vehicle: other) 92 % of control; (dose: 50.0 mg/kg/injection, schedule: Q01DX009 (ip), vehicle: other) 91 % of control; (dose: 100.0 mg/kg/injection, schedule: Q01DX009 (ip), vehicle: other) 88 % of control; (dose: 400.0 mg/kg/injection, schedule: Q01DX009 (ip), vehicle: other) 89 % of control.
As to `O=C1CCSC(=S)N1N1CCN(N2C(=O)CCSC2=S)CC1`, the T/C is 102 % of control under setting [1] and 93 % of control under setting [2].
As to `Cc1[nH]cnc1CSCCN=C(N)n1[nH]cc(-c2ccc(Cl)cc2)c1=O`, the T/C was 100 % of control under setting [1], 97 % of control under setting [2] and 101 % of control under setting [3].
Regarding `CN(O)/C=C1\C(=O)C=Cc2ccccc21`, the T/C by setting is: (dose: 50.0 mg/kg/injection, schedule: Q01DX005 (ip), vehicle: Klucel (hydroxypropylcellulose) (HPC)) 90 % of control; (dose: 100.0 mg/kg/injection, schedule: Q01DX005 (ip), vehicle: Klucel (hydroxypropylcellulose) (HPC)) 94 % of control; (dose: 200.0 mg/kg/injection, schedule: Q01DX005 (ip), vehicle: Klucel (hydroxypropylcellulose) (HPC)) 90 % of control.
Consider `CCN(CC)CCNC(=O)c1nn(-c2ccccc2)c2c1CCCc1ccccc1-2`, for which the T/C (dose: 25.0 mg/kg/injection, schedule: Q04DX003 (ip), vehicle: Klucel (hydroxypropylcellulose) (HPC)) was 101 % of control; the T/C (dose: 50.0 mg/kg/injection, schedule: Q04DX003 (ip), vehicle: Klucel (hydroxypropylcellulose) (HPC)) was 101 % of control; the T/C under setting [4] is 99 % of control and 92 % of control.
For `CCCCCCCCCCC1OCN2CCCCC12` (stereo unspecified), the T/C reads like this: under setting [5], 108 % of control; under setting [6], 104 % of control; (dose: 200.0 mg/kg/injection, schedule: Q01DX005 (ip), vehicle: saline) 118 % of control.
As to `CC(=O)Nc1ccc(S(=O)(=O)Nc2ccc3oc(=O)[nH]c3c2)cc1`, the T/C under setting [1] is 98 % of control, the T/C under setting [2] is 93 % of control and the T/C under setting [3] is 92 % of control.
Turning to `COC(=O)c1ccc(N2C(=O)C=CC2=O)cc1`, the T/C is 100 % of control (dose: 0.75 mg/kg/injection, schedule: Q01DX009 (ip), vehicle: saline with Tween-80); 100 % of control (dose: 1.5 mg/kg/injection, schedule: Q01DX009 (ip), vehicle: saline with Tween-80); 120 % of control (dose: 3.0 mg/kg/injection, schedule: Q01DX009 (ip), vehicle: saline with Tween-80).
For `O=C(O)[C@@H]1CCC(c2ccccc2)=N1`, the T/C is 98 % of control (dose: 50.0 mg/kg/injection, schedule: Q01DX005 (ip), vehicle: distilled water + alcohol); 98 % of control (dose: 100.0 mg/kg/injection, schedule: Q01DX005 (ip), vehicle: distilled water + alcohol); 98 % of control (dose: 200.0 mg/kg/injection, schedule: Q01DX005 (ip), vehicle: distilled water + alcohol).
As for `CCOC1[N-]CC(C)C(OCC)N1.CCOC1[N-]CC(C)C(OCC)N1.[Cl][Pd][Cl]` (stereo unspecified), the T/C is, setting by setting: under setting [7], 102 % of control; under setting [8], 106 % of control; under setting [9], 107 % of control.
Consider `CC(C)(C)N1CS[C@@H]2CCCC[C@H]21`, for which the T/C (dose: 25.0 mg/kg/injection, schedule: Q01DX005 (ip), vehicle: saline) is 104 % of control; the T/C under setting [5] is 92 % of control; the T/C under setting [6] is 111 % of control.
Turning to `CC(C)(C)C1CCC=CC(=O)C1` (stereo unspecified), the T/C by setting is: under setting [4], 105 % of control; (dose: 200.0 mg/kg/injection, schedule: Q04DX003 (ip), vehicle: Klucel (hydroxypropylcellulose) (HPC)) 113 % of control.
For the compound `C[CH2][Sn]([CH2]C)([CH2]C)[NH]S(=O)(=O)c1ccc(C)cc1`, the T/C (dose: 3.12 mg/kg/injection, schedule: Q01DX009 (ip), vehicle: Klucel (hydroxypropylcellulose) (HPC)) was 105 % of control.
Regarding `CCN(CC)[P+](C1=C(Cl)C(=O)C(C#N)=C(C#N)C1=O)(N(CC)CC)N(CC)CC`, the T/C runs as follows: (dose: 3.1 mg/kg/injection, schedule: Q01DX009 (ip), vehicle: saline with Tween-80) 108 % of control; (dose: 6.25 mg/kg/injection, schedule: Q01DX009 (ip), vehicle: saline with Tween-80) 99 % of control; (dose: 12.5 mg/kg/injection, schedule: Q01DX009 (ip), vehicle: saline with Tween-80) 99 % of control; (dose: 25.0 mg/kg/injection, schedule: Q01DX009 (ip), vehicle: saline with Tween-80) 87 % of control; (dose: 50.0 mg/kg/injection, schedule: Q01DX009 (ip), vehicle: saline with Tween-80) 101 % of control.
For `CCCCC(CC)CN=Cc1c(O)c(O)c(C(C)C)c2cc(C)c(-c3c(C)cc4c(C(C)C)c(O)c(O)c(C=NCC(CC)CCCC)c4c3O)c(O)c12` (stereo unspecified), the T/C (dose: 50.0 mg/kg/injection, schedule: Q01DX005 (ip), vehicle: saline with Tween-80) is 93 % of control; the T/C (dose: 100.0 mg/kg/injection, schedule: Q01DX005 (ip), vehicle: saline with Tween-80) was 88 % of control; the T/C (dose: 200.0 mg/kg/injection, schedule: Q01DX005 (ip), vehicle: saline with Tween-80) is 86 % of control.
As for `O=[N+]([O-])c1cnc2n(O)cccc1-2`, the T/C was 90 % of control (dose: 100.0 mg/kg/injection, schedule: Q01DX001 (ip), vehicle: saline with Tween-80) and 87 % of control (dose: 200.0 mg/kg/injection, schedule: Q01DX001 (ip), vehicle: saline with Tween-80).
`CC1(C)C=Cc2cc3c(cc2O1)OC[C@H]1c2cc4c(cc2O[C@@H]31)OCO4`: the T/C was 97 % of control (dose: 25.0 mg/kg/injection, schedule: Q04DX002 (ip), vehicle: Klucel (hydroxypropylcellulose) (HPC)); 100 % of control (dose: 50.0 mg/kg/injection, schedule: Q04DX002 (ip), vehicle: Klucel (hydroxypropylcellulose) (HPC)); 100 % of control (dose: 100.0 mg/kg/injection, schedule: Q04DX002 (ip), vehicle: Klucel (hydroxypropylcellulose) (HPC)); 89 % of control (dose: 400.0 mg/kg/injection, schedule: Q04DX002 (ip), vehicle: Klucel (hydroxypropylcellulose) (HPC)).
Turning to `O=C(COc1cccc2oc3ccccc3c(=O)c12)N/N=C/c1ccc(N(CCCl)CCCl)cc1`, the T/C reads like this: under setting [7], 97 % of control; under setting [8], 96 % of control; under setting [9], 95 % of control.
`CN(C)C(C#C[Si](C)(C)C)CO` (stereo unspecified): the T/C by setting is: (dose: 100.0 mg/kg/injection, schedule: Q04DX003 (ip), vehicle: saline) 104 % of control; (dose: 200.0 mg/kg/injection, schedule: Q04DX003 (ip), vehicle: saline) 100 % of control; (dose: 400.0 mg/kg/injection, schedule: Q04DX003 (ip), vehicle: saline) 97 % of control.
